# Assays:
# [1] = tested on: organotypic DRG cultures; test: Palmitate-induced ER stress markers (mRNA) in organotypic whole DRG cultures; assay type: cell-based, mice; details: palmitate treated organotypic DRG cultures, compared to vehicle; FIG. 1E
# Excerpt: (§1) FIG. 1A is a chart representing distribution of nuclear receptor mRNA in the whole DRG. Normalized mRNA expression levels were defined as Absent if the Ct value was greater than 40, Low if the level was […] arbitrary units, Moderate if the level was between 0.025 and 0.25, and High if the level was greater than 0.25 arbitrary units. […] FIGS. 1D and 1F represent data of protein levels of CHOP, an ER stress marker, in DRG of mice fed western diet (WD) compared to normal chow (NC) (FIG. 1D, n=10 DRG/group), and in ex vivo organotypic whole DRG cultures treated with palmitate and LXR agonist (FIG. 1F, n=individual experiments in triplicate). FIGS. 1C, 1E, and 1G represent data of mRNA levels of ER stress markers using 18S to normalize, in DRG of WD and NC fed mice (FIG. 1C, n=4 mice/group), in organotypic whole DRG cultures (FIG. 1E), and in primary neuronal culture of DRG neurons treated with LXR agonist and palmitate (FIG. 1G, n=5 individual experiments). (All values are Mean±S.E.M, with vehicle group defined as 100%; *p<0.05 with vehicle; **p<0.05 with vehicle+palmitate).
# ER stress has been identified as a potential culprit underlying type 1 and type 2 diabetes. Increased expression of the ER stress marker CHOP was reported in metabolic tissues of diabetic mice, while targeted disruption of CHOP gene delayed the onset of diabetes. […]
# [2] = tested on: DRG of WD-fed mice; test: ER stress marker (UPR target gene) mRNA in DRG of WD-fed mice treated with agonist; assay type: in vivo; details: 25 mg/kg i.p. twice a week for three weeks, FIG. 2D
# Excerpt: End point levels of serum triglycerides (FIG. 2B), cholesterol (FIG. 2C), in mice fed NC or WD treated with agonist. FIG. 2D represents mRNA levels of ER stress markers normalized to 18S in DRG of NC or WD-fed mice treated with LXR agonist. (n=4 mice/group; all values are Mean±S.E.M; for mRNA relative levels were plotted with NC-vehicle group defined as 100%; *p<0.05 with NC-Veh; **p<0.05 with WD-Veh). The above data linking LXR and ER stress in DRG led the inventors to assess whether activation of LXRs could change the WD-induced allodynia. WT mice were fed either NC or WD for a total of twelve weeks after weaning, while assessing the onset and progression of allodynia. […] Weight-matched mice on either diet were treated for three weeks with either GW3965 (25 mg/kg body weight; twice a week by i.p.) or vehicle after eight weeks of WD diet (twelve weeks of age). As activation of LXRs elevated triglyceride levels in liver and plasma, the dosage of LXR agonist was adjusted to minimize the increase of triglyceride and cholesterol (FIGS. 2B and 2C). Sensitivity of mice to innocuous stimuli was evaluated over the duration of GW3965 treatment. […] Then, the expression of UPR target genes in DRG of NC- or WD-fed mice treated with vehicle or GW3965 was compared.
# [3] = tested on: LXRs in organotypic cultures of DRG; test: LXR target gene expression (ABCA1) in organotypic cultures of DRG; assay type: cell-based, mice; details: organotypic cultures of DRG stimulated with GW3965; FIG. 1B
# Excerpt: as §1, with “vehicle+palmitate). […]” for “vehicle+palmitate).”
# [4] = tested on: Nav1.8 expressing neurons of the DRG; test: ER stress marker mRNA in Nav1.8 expressing sensory neurons (RiboTag IP) of DRG organotypic cultures treated with palmitate; assay type: cell-based, mice; details: Nav1.8 sensory neuron specific mRNA from DRG organotypic cultures, FIG. 3F
# Excerpt: FIGS. 3A through 3F include charts and images representing that an LXR agonist decreased lipid-induced ER stress in DRG neurons expressing Nav1.8. […] FIG. 3B represents the generation of tissue specific RiboTag mouse. Sensory neuron specific (Nav1.8) Cre mice were utilized to generate Ribotag-Nav1.8-Cre mice. FIG. 3C represents data from western blots on whole DRG of RiboTag-Nav1.8-Cre mice after immunoprecipitation for HA. FIG. 3D represents data from immunohistochemistry on DRG slices for HA in sensory neurons (in green—HA, blue—DAPI/nuclei). FIG. 3E represents actin normalized mRNA levels of positive (Nav1.8) and negative (GFAP, PV) markers of Nav1.8 expressing neurons in whole DRG (WT), input, and IP samples. FIG. 3F represents actin normalized mRNA levels of ER stress markers, in sensory neurons treated with LXR agonist and palmitate. Sensory neuron specific mRNA was isolated by immunoprecipitation from whole DRG organotypic cultures treated with agonist and palmitate (n=3 individual experiments). (Values are Mean±S.E.M, with vehicle group defined as 100%; *p<0.05 with vehicle; **p<0.05 with vehicle+palmitate). […] The mRNA levels of ER stress markers undergoing translation were analyzed in Nav1.8 expressing neurons. […]
# [5] = tested on: WD-fed mice; test: Western diet-induced allodynia, von Frey test; assay type: in vivo; details: 25 mg/kg i.p. twice a week for three weeks after eight weeks of WD, compared to WD vehicle, FIG. 2A
# Excerpt: End point levels of serum triglycerides (FIG. 2B), cholesterol (FIG. 2C), in mice fed NC or WD treated with agonist. FIG. 2D represents mRNA levels of ER stress markers normalized to 18S in DRG of NC or WD-fed mice treated with LXR agonist. (n=4 mice/group; all values are Mean±S.E.M; for mRNA relative levels were plotted with NC-vehicle group defined as 100%; *p<0.05 with NC-Veh; **p<0.05 with WD-Veh). The mechanical hypersensitivity observed early in peripheral neuropathy is believed to be associated with metabolic syndrome and independent of diabetes. […] The von Frey test was performed and measured phasic response frequency to calculate the 50% threshold in WD and NC-fed mice. […] The above data linking LXR and ER stress in DRG led the inventors to assess whether activation of LXRs could change the WD-induced allodynia. WT mice were fed either NC or WD for a total of twelve weeks after weaning, while assessing the onset and progression of allodynia. […] Weight-matched mice on either diet were treated for three weeks with either GW3965 (25 mg/kg body weight; twice a week by i.p.) or vehicle after eight weeks of WD diet (twelve weeks of age). […] Sensitivity of mice to innocuous stimuli was evaluated over the duration of GW3965 treatment. […]
# [6] = tested on: 80-week old mice presenting signs of neuropathy; test: Intra epidermal nerve fibers density in paw skin of 80-week old mice with neuropathy; assay type: in vivo; details: gavaged twice a week for three months, skin of paws, FIG. 6
# Excerpt: FIG. 6 is a bar chart evidencing that treatments with a mixed solution of butyrate and an LXR agonist (GW3965) trigger an enhanced regeneration mechanism that improves neuropathy.
# In an additional investigation, 80-week old mice presenting signs of neuropathy (loss of fibers in the skin) were gavaged twice a week during a three-month period with a GW3965 solution or a mixed solution of GW3965 and butyrate using the indicated concentrations reported in FIG. 6. After three months, the mice were euthanized and the intra epidermal nerve fibers density was counted in the skin of their paws.
# [7] = tested on: DRG primary neuronal cultures; test: Palmitate-induced ER stress markers and lpcat3 mRNA in DRG primary neuronal cultures; assay type: cell-based, mice; details: DRG neurons stimulated by LXR agonist; FIG. 1G
# Excerpt: as §1
# Previous research has shown that LXRs could be involved in the regulation of organelles/membrane phospholipid composition by regulating the expression of LPCAT3 (lysophospholipid acyltransferase).
compound,measurement,setting,value
O=C(O)Cc1cccc(OCCCN(Cc2cccc(C(F)(F)F)c2Cl)CC(c2ccccc2)c2ccccc2)c1 [GW3965],mRNA levels of ER stress markers,[1],decreased
same,expression of ER stress markers in DRG,[2],decreased expression of ER stress markers
same,"LXR canonical gene expression, ATP-binding cassette transporter (ABCA1)",[3],significant increase
same,"CHOP, ATF4, and sXBP1 mRNA levels increased by palmitate",[4],blunted
same,progression of WD-induced allodynia (von Frey sensitivity to innocuous stimuli),[5],delay in the progression of WD-induced allodynia
same,number of nerves (intra epidermal nerve fibers density),[6],increased the number the nerves
same,lpcat3 mRNA,[7],significant increase

# Source: patent publication US20200038410A1, “METHODS FOR TREATING NEUROPATHY” (Loyola University Chicago, priority 2018, published 2020)
